Assay results as given in patent publication US20210315840A1, “SOLID ORAL DOSAGE FORMS OF KETAMINE DERIVATIVES” (priority 2017, published 2021).
“Also recorded” adds a separate entry of the source. Read-outs that look alike come from different tables or passages of the source.

Legend:
[1] = system: Caco-2
[2] = system: mouse; assay: Progressive ratio test in the mouse
[3] = 300 mg/kg IP daily for 4 days, listed as 2R,6R-HNK
[4] = 300 mg/kg, replication after 3-week wash-out, listed as 2R,6R-HNK
[5] = dose matched to 300 mg/kg 2R,6R-HNK

CC(C)NCC(O)COc1cccc2ccccc12 (stereo not shown) [Propranolol, reference compound]
Papp Replicate 1 ([1]; Direction = A2B): 26.0 10^−6 cms^−1
Papp Replicate 2 ([1]; Direction = A2B): 27.4 10^−6 cms^−1
Papp Replicate 1 ([1]; Direction = B2A): 27.0 10^−6 cms^−1
Papp Replicate 2 ([1]; Direction = B2A): 26.2 10^−6 cms^−1

N[C@@]1(c2ccccc2Cl)CCC[C@@H](O)C1=O [2R,6R-hydroxynorketamine L-pyroglutamate]
average responses per minute, higher compared with vehicle ([2]; 300 mg/kg IP): 29%
number of target touches compared to ketamine and vehicle groups ([2]; 300 mg/kg IP daily for 4 days): significant increase
breakpoint compared to vehicle and ketamine ([2]; 300 mg/kg IP daily for 4 days, tested 20 minutes after injection): significant increase
% of correct touches [2, 3]: significant increase; also recorded: significantly increased
ratio of target touches to blank touches [2, 3]: significant increase; also recorded: significantly increased
rate of responding (running rate) compared to ketamine and vehicle groups ([2]; 300 mg/kg IP, 60 minute test session): higher rate of responding
predicted peak responding (running rate coefficient) ([2]; 300 mg/kg IP, p=0.12): trend toward a main effect of drug
average responses per minute, higher compared with ketamine ([2]; 300 mg/kg IP, ketamine 10 mg/kg): 59%
breakpoint compared to vehicle and ketamine ([2]; 300 mg/kg, replication after 3-week wash-out): significant increase
% of correct touches [2, 4]: significant increase; also recorded: increased
number of target touches [2, 4]: significant increase; also recorded: increased
ratio of target touches to blank touches [2, 4]: significant increase; also recorded: increased
cognitive measures ([2]; doses below 30 mg/kg): No increase

O=C1CC[C@@H](C(=O)[O-])N1.[Na+] [NaPg, sodium L-pyroglutamate, reference compound]
any measure examined [2, 5]: did not significantly affect
breakpoint compared to vehicle controls [2, 5]: did not increase
